Laboratory results as given in ChEMBL document CHEMBL1914403 (J Med Chem, 2011).

What was measured:
[1] = Drug uptake in brain; type: ADME, tissue-based
[2] = Oral bioavailability in rat at 2 mg/kg; type: ADME, organism-based; conditions: in vivo
[3] = tested on: Rattus norvegicus; assay: Volume of distribution at steady state in rat at 2 mg/kg, po; type: ADME, organism-based; set-up: dose 2 mg/kg, route oral; conditions: in vivo
[4] = AUC in brain of rat at 10 mg/kg, po; type: ADME, organism-based; set-up: dose 10 mg/kg, route oral
[5] = AUC in plasma of rat at 10 mg/kg, po; type: ADME, organism-based; set-up: dose 10 mg/kg, route oral
[6] = Oral bioavailability in rat at […]; type: ADME, organism-based; conditions: in vivo
[7] = tested on: Rattus norvegicus; assay: Volume of distribution at steady state in rat at […], po; type: ADME, organism-based; set-up: dose 2.5 mg/kg, route oral; conditions: in vivo
[8] = Oral bioavailability in dog at […]; type: ADME, organism-based, Canis lupus familiaris; conditions: in vivo
[9] = tested on: Canis familiaris; assay: Volume of distribution at steady state in dog at […], po; type: ADME, organism-based, Canis lupus familiaris; set-up: dose 2.5 mg/kg, route oral; conditions: in vivo
[10] = tested on: MDCK; assay: Apparent permeability across apical to basolateral side of dog MDCK cells expressing human MDR1; type: ADME, cell-based, Canis lupus familiaris
[11] = tested on: MDCK; assay: Apparent permeability across basolateral to apical side of dog MDCK cells expressing human MDR1; type: ADME, cell-based, Canis lupus familiaris
[12] = Oral bioavailability in dog at 2 mg/kg; type: ADME, organism-based, Canis lupus familiaris; conditions: in vivo
[13] = tested on: Canis familiaris; assay: Volume of distribution at steady state in dog at 2 mg/kg, po; type: ADME, organism-based, Canis lupus familiaris; set-up: dose 2 mg/kg, route oral; conditions: in vivo
[14] = Oral bioavailability in rat at 0.1 mg/kg; type: ADME, organism-based; conditions: in vivo
[15] = Oral bioavailability in dog at 0.5 mg/kg; type: ADME, organism-based, Canis lupus familiaris; conditions: in vivo
[16] = tested on: Rattus norvegicus; assay: Volume of distribution at steady state in rat at 0.1 mg/kg, po; type: ADME, organism-based; set-up: dose 0.1 mg/kg, route oral; conditions: in vivo
[17] = tested on: Canis familiaris; assay: Volume of distribution at steady state in dog at 0.5 mg/kg, po; type: ADME, organism-based, Canis lupus familiaris; set-up: dose 0.5 mg/kg, route oral; conditions: in vivo

SMILES	Drug uptake [1] [%]	other results
COc1ccc2nc(C)c3c(C)nc(-c4ccccc4C)n3c2n1	> 90	
COc1ccc2nc(C)c3c(C)nc(-c4ccccc4C(F)(F)F)n3c2n1	> 90	
COc1ccc2nc(C)c3c(C)nc(-c4ccccc4Cl)n3c2n1	> 90	
COc1ccc2nc(C)c3c(C)nc(-c4cc(Cl)ccc4Cl)n3c2n1	> 90	
COc1ccc2nc(C)c3c(C)nc(-c4ccc(F)cc4Cl)n3c2n1	> 90	
COc1ccc2nc(C)c3c(C)nc(-c4ccccc4OC)n3c2n1	> 90	
COc1ccc2nc(C)c3c(C)nc(-c4ccccc4OC(F)(F)F)n3c2n1	> 90	
COc1ccc2nc(C)c3c(C)nc(-c4ccccc4C(N)=O)n3c2n1	> 90	
COc1ccc2nc(C)c3c(C(F)(F)F)nc(-c4ccccc4C)n3c2n1	> 90	
COc1ccc2nc(C)c3c(C(F)(F)F)nc(-c4ccccc4Cl)n3c2n1	> 90	
COc1ccc2nc(C)c3c(C(F)(F)F)nc(-c4cc(Cl)ccc4Cl)n3c2n1	> 90	
COc1ccc2nc(C)c3c(C(F)(F)F)nc(-c4ccc(F)cc4Cl)n3c2n1	> 90	
COc1ccc2nc(C)c3c(C(F)(F)F)nc(-c4cc(F)ccc4Cl)n3c2n1	> 90	
COc1ccc(Cl)c(-c2nc(C(F)(F)F)c3c(C)nc4ccc(OC)nc4n23)c1	> 90	
COc1ccc2nc(C(F)(F)F)c3c(C)nc(-c4ccccc4Cl)n3c2n1	> 90	
COc1ccc2nc(C(F)F)c3c(C)nc(-c4ccccc4Cl)n3c2n1	> 90	
COc1ccc2nc(C#N)c3c(C)nc(-c4ccccc4Cl)n3c2n1	> 90	
COc1ccc2nc(C)c3c(C)nc(-c4sccc4C)n3c2n1	> 90	
COc1ccc2nc(C)c3c(C)nc(-c4cccn4C)n3c2n1	> 90	
COc1ccc2nc(C)c3c(C)nc(-c4cn[nH]c4)n3c2n1	> 90	
COc1ccc2nc(C)c3c(C)nc(-c4c(C)n[nH]c4C)n3c2n1	> 90	
COc1ccc2nc(C)c3c(C)nc(-c4c(C)nn(C)c4C)n3c2n1	> 90	bioavailability [2]: 67%; Vdss [3]: 0.7 L/kg; AUC [4]: 2940 ng·h/mL; AUC [5]: 4130 ng·h/mL
COc1ccc2nc(C)c3c(C)nc(-c4c(C)noc4C)n3c2n1	> 90	
COc1ccc2nc(C)c3c(C)nc(-c4sc(C)nc4C)n3c2n1	> 90	
COc1ccc2nc(C)c3c(C)nc(-c4cncnc4)n3c2n1	> 90	
COc1ccc2nc(C)c3c(C)nc(-c4cccnc4)n3c2n1	> 90	

SMILES	Drug uptake [1] [%]	other results
COc1ccc2nc(C)c3c(C)nc(-c4cccnc4C)n3c2n1	> 90	
COc1ccc2nc(C)c3c(C)nc(-c4cnccc4C)n3c2n1	> 90	bioavailability [6]: 25%; Vdss [7]: 1 L/kg; AUC [4]: 866 ng·h/mL; AUC [5]: 747 ng·h/mL
COc1ccc2nc(C)c3c(C)nc(-c4ccc(C)nc4)n3c2n1	> 90	
COc1ccc2nc(C)c3c(C)nc(-c4cnccc4Cl)n3c2n1	> 90	
COc1ccc2nc(C)c3c(C)nc(-c4ccncc4C)n3c2n1	> 90	
COc1ccc2nc(C)c3c(C)nc(-c4ccncc4Cl)n3c2n1	> 90	
COc1ccc2nc(C)c3c(C)nc(-c4cccnc4OC)n3c2n1	> 90	
COc1ccc2nc(C)c3c(C)nc(-c4cnccc4OC)n3c2n1	> 90	
Cc1ccncc1-c1nc(C)c2c(C)nc3ccccc3n12	> 90	
Cc1ccncc1-c1nc(C)c2c(C)nc3ccc(F)cc3n12	> 90	
Cc1cnccc1-c1nc(C)c2c(C)nc3ccc(F)cc3n12	> 90	
Cc1ccccc1-c1nc(C)c2c(C)nc3ccc(F)cc3n12	> 90	
Cc1ccncc1-c1nc(C)c2c(C)nc3ccc(Cl)cc3n12	> 90	
Cc1cnccc1-c1nc(C)c2c(C)nc3ccc(Cl)cc3n12	> 90	
COc1ccc2nc(C)c3c(C)nc(-c4cnccc4C)n3c2c1	> 90	
Cc1ccncc1-c1nc(C)c2c(C)nc3ccc(OC(F)(F)F)cc3n12	> 90	
Cc1cnccc1-c1nc(C)c2c(C)nc3ccc(OC(F)(F)F)cc3n12	> 90	
Cc1ccncc1-c1nc(C)c2c(C)nc3ccc(C(F)(F)F)cc3n12	> 90	
Cc1cnccc1-c1nc(C)c2c(C)nc3ccc(C(F)(F)F)cc3n12	> 90	
Cc1ncccc1-c1nc(C)c2c(C)nc3ccc(C(F)(F)F)cc3n12	> 90	
Cc1ccncc1-c1nc(C)c2c(C)nc3c(F)cc(F)cc3n12	> 90	
Cc1cnccc1-c1nc(C)c2c(C)nc3c(F)cc(F)cc3n12	> 90	
COc1cc(F)cc2c1nc(C)c1c(C)nc(-c3cnccc3C)n12	> 90	
COc1cc(F)cc2c1nc(C)c1c(C)nc(-c3ccncc3C)n12	> 90	bioavailability [6]: 27%; bioavailability [8]: 73%; Vdss [7]: 0.9 L/kg; Vdss [9]: 6 L/kg; AUC [4]: 2370 ng·h/mL; AUC [5]: 3640 ng·h/mL; Papp [10]: permeable; Papp [11]: permeable
COc1cc(F)cc2c1nc(C)c1c(C)nc(-c3cccnc3C)n12	> 90	
COc1cc(F)cc2c1nc(C)c1c(C)nc(-c3sc(C)nc3C)n12	> 90	

SMILES	Drug uptake [1] [%]	other results
COc1cc(F)cc2c1nc(C)c1c(C)nc(-c3c(C)nn(C)c3C)n12	> 90	
COc1cc(F)cc2c1nc(C)c1c(C)nc(-c3ccccc3C)n12	> 90	
Cc1ccccc1-c1nc(C)c2c(C)nc3c(OC(F)F)cc(F)cc3n12	> 90	
CCOc1cc(F)cc2c1nc(C)c1c(C)nc(-c3ccccc3C)n12	> 90	
Cc1ccccc1-c1nc(C)c2c(C)nc3c(OCC(F)(F)F)cc(F)cc3n12	> 90	
Cc1ccccc1-c1nc(C)c2c(C)nc3c(OCC4CC4)cc(F)cc3n12	> 90	
Cc1ccccc1-c1nc(C)c2c(C)nc3c(O)cc(F)cc3n12	> 90	
COc1cc(OC)c2nc(C)c3c(C)nc(-c4cnccc4C)n3c2c1	> 90	bioavailability [6]: 25%; bioavailability [12]: 100%; Vdss [7]: 1.3 L/kg; Vdss [13]: 1.6 L/kg; AUC [4]: 3280 ng·h/mL; AUC [5]: 8850 ng·h/mL
COc1cc(OC)c2nc(C)c3c(C)nc(-c4ccncc4C)n3c2c1	> 90	
COc1cc(OC)c2nc(C)c3c(C)nc(-c4cccnc4C)n3c2c1	> 90	
COc1cc(N2CCOCC2)cc2c1nc(C)c1c(C)nc(-c3ccncc3C)n12	> 90	
COc1cc(N2CCOCC2)cc2c1nc(C)c1c(C)nc(-c3cccnc3C)n12	> 90	
COc1cc(OCc2ccccc2)cc2c1nc(C)c1c(C)nc(-c3cccnc3C)n12	> 90	
COc1cc(OC(F)F)cc2c1nc(C)c1c(C)nc(-c3cccnc3C)n12	> 90	bioavailability [14]: 83%; bioavailability [15]: 84%; Vdss [16]: 0.6 L/kg; Vdss [17]: 1.1 L/kg; AUC [4]: 4400 ng·h/mL; AUC [5]: 12700 ng·h/mL
COc1cc(C(F)(F)F)cc2c1nc(C)c1c(C)nc(-c3ccncc3C)n12	> 90	
COc1cc(Cl)c2nc(C)c3c(C)nc(-c4ccncc4C)n3c2c1	> 90	
Cc1cnccc1-c1nc(C)c2c(C)nc3c(Cl)cc(C(F)(F)F)cc3n12	> 90	
COc1cc(F)c2nc(C)c3c(C)nc(-c4cnccc4C)n3c2c1	> 90	
COc1cc(F)c2nc(C)c3c(C)nc(-c4ccncc4C)n3c2c1	> 90	
COc1cc(F)c2nc(C)c3c(C)nc(-c4cccnc4C)n3c2c1	> 90	
Cc1cnccc1-c1nc(C)c2c(C)nc3c(F)cc(OC(F)F)cc3n12	> 90	
Cc1cnccc1-c1nc(C)c2c(C)nc3c(F)cc(OCC(F)(F)F)cc3n12	> 90	
Cc1cnccc1-c1nc(C)c2c(C)nc3c(F)cc(OCC4CC4)cc3n12	> 90	
COc1cc(F)c2nc(C)c3c(C)nc(-c4c(C)nn(C)c4C)n3c2c1	> 90	
